Experimental data from US8809316B2, “Use of immunosuppressant compounds in a new indication” (Novartis AG, priority 2008, dated 2014).

Tests used:
Assay type in all cases: in vivo, Lewis rats
[1] = system: Experimental Autoimmune Neuritis (EAN) rats; assay: EAN clinical (neurological) score, suppressive treatment
[2] = system: sciatic nerves of EAN rats; assay: Immunohistochemistry of inflammatory cell infiltration in sciatic nerves of EAN rats; conditions: for Area of immunoreactivity/area of sciatic nerves (%) for B cells (OX22+) / Area of immunoreactivity/area of sciatic nerves (%) for Macrophages (ED1+) / Area of immunoreactivity/area of sciatic nerves (%) for T cells (W3/13+): Day 16, EAN rats
Method: (§1) To evaluate inflammatory cell infiltration and pathological changes in the PNS, five compound A-treated rats (at both concentrations) and five control EAN rats from Day 16 were sacrificed. Rats were deeply anaesthetized with ether and perfused intracardially with 4° C., 4% paraformaldehyde in PBS. Left and right sciatic nerves were quickly removed and post-fixed in 4% formaldehyde overnight at 4° C. Sciatic nerves were cut into two equally long segments, embedded in paraffin, serially sectioned (3 μm) and mounted on silan-covered slides.
After dewaxing, cross-sections of sciatic nerves were boiled (in a 600 W microwave oven) for 15 min in citrate buffer (2.1 g sodium citrate/L, pH 6). Endogenous peroxidase was inhibited with 1% H2O2 in methanol for 15 min. Sections were incubated with 10% normal pig serum (Biochrom, Berlin, Germany) to block non-specific binding of immunoglobulins and then with the following monoclonal antibodies: W3/13 (1:50; Serotec, Oxford, UK) for T lymphocytes, OX22 (1:200; Serotec, Oxford, UK) for B cells, ED1 for activated macrophages (1:100; Serotec, Oxford, UK). Antibody binding to tissue sections was visualized with biotinylated IgG F(ab)2 secondary antibody fragments (rabbit anti-mouse or rabbit anti-goat; 1:400; DAKO, Hamburg, Germany). Subsequently, sections were incubated with a Streptavidin-Avidin-Biotin complex (DAKO, Hamburg, Germany), followed by development with diaminobenzidine (DAB) substrate (Fluka, Neu-Ulm, Germany). Finally, sections were counterstained with Maier's Hemalum.
To evaluate immunostaining data, the percentages of areas of immunoreactivity (IR) to areas of sciatic nerve cross-sections were calculated. Images of sciatic nerve cross-sections were captured under 50× magnification using Nikon Coolscope (Nikon, Dusseldorf, Germany) with fixed parameters. Images were analyzed using MetaMorph Offline 7.1 (Molecular Devices, Toronto, Canada). Areas of IR were selected by colour threshold segmentation and all parameters were fixed for all images. Areas of sciatic nerve cross-sections were manually selected. For each EAN rat, four cross-sections from root and middle levels of both sides were analyzed. Results were given as arithmetic means of percentages of areas of IR to areas of sciatic nerve cross-sections and standard errors of means (SEM).

[3] = system: sciatic nerves of EAN rats; assay: Luxol Fast Blue (LFB) staining, mean histological score of sciatic nerves of EAN rats; conditions: for Mean Histological Score: LFB staining, scale 0-3, sciatic nerves, Day 16
Method: as §1
The routine Luxol Fast Blue (LFB) staining was applied to show myelin. Histological changes between Compound A and control EAN rats were compared by an established semi-quantitative method. Briefly, four cross-sections from root and middle level of both sides of EAN rats were analyzed. All perivascular areas present in cross-sections were evaluated by two observers unaware of the treatment, and the degree of pathological alteration was graded semiquantitatively on the following scale: 0=normal perivascular area; 1=mild cellular infiltrate adjacent to the vessel; 2=cellular infiltration plus demyelination in immediate proximity to the vessel; and 3=cellular infiltration and demyelination throughout the section. Results were given as mean histological score (Hartung et al., 1988).

[4] = Body weight of EAN rats
[5] = 3 mg/kg intragastric once daily
[6] = 10 mg/kg intragastric once daily

Question: For `CCc1cc(/C(C)=N/OCc2ccc(C3CCCCC3)c(C(F)(F)F)c2)ccc1CN1CC(C(=O)O)C1` [Compound A, 1-{4-[1-(4-Cyclohexyl-3-trifluoromethyl-benzyloxyimino)-ethyl]-2-ethyl-benzyl}-azetidine-3-carboxylic acid], which “Day of maximal neurological scores” value ([1]; days from immunisation, control maximum at Day 13) is on record?
Answer: 15 Day

Question: What about the “Day of full recovery of rats” value ([1]; days from immunisation, control recovered by Day 22) of the same compound?
Answer: ≤ 19 days

Question: And the “Day at which (greatly reduced) neurological signs were seen” value ([1]; days from immunisation, oral once daily until Day 22, control onset Day 9)?
Answer: 14 Day

Question: What about the “Effect on clinical signs of EAN (in words)” value ([1]; relative to the water/cmc vehicle, FIGS. 1A and 1B) of the same compound?
Answer: almost prevented the development of clinical signs of EAN

Question: And the “Area of immunoreactivity/area of sciatic nerves (%) for B cells (OX22+)” value [2, 5]?
Answer: 0.025%

Question: What about the “Area of immunoreactivity/area of sciatic nerves (%) for Macrophages (ED1+)” value [2, 5] of the same compound?
Answer: 0.20%

Question: What about the “Area of immunoreactivity/area of sciatic nerves (%) for T cells (W3/13+)” value [2, 5] of the same compound?
Answer: 0.08%

Question: What about the “Area of immunoreactivity/area of sciatic nerves (%) for B cells (OX22+)” value [2, 6] of the same compound?
Answer: 0.021%

Question: And the “Area of immunoreactivity/area of sciatic nerves (%) for Macrophages (ED1+)” value [2, 6]?
Answer: 0.11%

Question: What about the “Area of immunoreactivity/area of sciatic nerves (%) for T cells (W3/13+)” value [2, 6] of the same compound?
Answer: 0.04%

Question: What about the “Infiltration of T cells, B cells and macrophages in sciatic nerves (in words)” value ([2]; EAN rats, Day 16) of the same compound?
Answer: significantly suppressed infiltration

Question: And the “Mean Histological Score” value ([3]; 3 mg/kg)?
Answer: 0.51

Question: And the “Mean Histological Score” value ([3]; 10 mg/kg)?
Answer: 0.25

Question: And the “Mean histological scores measured by LFB staining (in words)” value ([3]; Compound A-treated versus control EAN rats)?
Answer: markedly lower

Question: What about the “Weight loss during disease (in words)” value ([4]; higher dosage suspension (10 mg/kg), FIG. 2B) of the same compound?
Answer: small weight loss between days 11 and 12, followed by weight gain

Question: And the “Weight loss during disease (in words)” value ([4]; lower compound A suspension (3 mg/kg), Day 11 to 16, FIG. 2B)?
Answer: reduced level of weight loss
